Patent publication US11358969B2, “Indole AHR inhibitors and uses thereof” (Ikena Oncology, Inc., priority 2017, dated 2022)
Blank lines part the entries; values can stand above or below the compound they belong to.

Experiments:
[1] = Mouse Pharmacokinetic Study (Example 1C); format: in vivo; settings: mouse, plasma, CD-1 mice; for Vd: read-out: Vdss
Protocol: Formulations of compounds set forth in Table 4 were administered intravenously or orally via gavage to CD-1 mice. Typically, at 0.167, 0.5, 1, 2, 4, 6, 12, and 24 hours post-dose, blood was collected and processed to plasma by centrifugation and stored at −80° C. until analysis.
Internal standard was added to each sample prior to protein precipitation with acetonitrile. The precipitates were filtered through a Phree phospholipid removal filter plate and the samples were analyzed by LC/MS/MS. A standard curve was prepared in plasma from typically from 1.0 ng/mL to 3000 ng/mL and processed in the same manner as the samples. Sample analysis was typically performed on a suitable LC/MS/MS system fitted with an analytical UPLC column and compounds eluted from the analytical column with a gradient from 30-95% 0.1% formic acid (v/v) in ACN: 0.1% formic acid (v/v) in water. Mass spectrometric detection of test compound and the internal standard was performed by MRM in positive mode. The pharmacokinetics of each compound were analyzed by Phoenix WinNonlin software (Pharsight, St. Louis, Mo.) via non-compartmental analysis.

AHR = target: T1, AHR (UniProt P35869); assay: DRE-Luciferase Reporter Assay (Alternate Method) (Example 1B); format: cell-based, murine or human; settings: cell line and AHR activating ligand not specified
T1 construct: IC50
T1 sequence (P35869 1-848): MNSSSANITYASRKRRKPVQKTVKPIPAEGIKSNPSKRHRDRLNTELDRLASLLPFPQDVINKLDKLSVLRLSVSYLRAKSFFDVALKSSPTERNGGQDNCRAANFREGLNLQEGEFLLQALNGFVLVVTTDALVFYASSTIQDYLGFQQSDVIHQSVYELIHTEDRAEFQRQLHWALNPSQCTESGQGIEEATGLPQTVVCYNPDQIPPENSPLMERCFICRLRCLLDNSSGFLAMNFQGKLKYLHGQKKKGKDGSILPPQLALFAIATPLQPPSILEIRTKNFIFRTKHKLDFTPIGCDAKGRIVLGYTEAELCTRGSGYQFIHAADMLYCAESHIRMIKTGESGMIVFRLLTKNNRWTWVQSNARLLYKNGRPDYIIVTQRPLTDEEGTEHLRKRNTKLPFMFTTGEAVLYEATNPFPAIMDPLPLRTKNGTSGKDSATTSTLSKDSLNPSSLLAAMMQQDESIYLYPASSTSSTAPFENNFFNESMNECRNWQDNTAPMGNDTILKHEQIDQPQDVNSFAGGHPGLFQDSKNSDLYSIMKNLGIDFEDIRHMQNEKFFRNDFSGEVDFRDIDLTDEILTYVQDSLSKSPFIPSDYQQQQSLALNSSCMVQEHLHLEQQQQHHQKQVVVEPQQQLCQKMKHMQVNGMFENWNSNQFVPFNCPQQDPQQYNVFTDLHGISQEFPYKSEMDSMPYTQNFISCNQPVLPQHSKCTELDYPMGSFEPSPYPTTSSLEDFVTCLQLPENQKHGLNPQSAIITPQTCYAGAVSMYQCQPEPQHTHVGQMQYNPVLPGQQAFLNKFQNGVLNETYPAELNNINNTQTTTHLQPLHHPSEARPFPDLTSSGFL

Compound: C[C@H](O)c1cnn2c(N[C@@H]3CCc4[nH]c5ccccc5c4C3)nc(-c3cncc(F)c3)nc12 [I-118]
- bioavailability ([1]; po, 30 mg/kg): 3%
- AUC(0-inf) ([1]; iv, 3 mg/kg): 368 ng·h/mL
- AUC(0-t) ([1]; iv, 3 mg/kg): 364 ng·h/mL
- clearance ([1]; iv, 3 mg/kg): 136 mL/min/kg
- half-life ([1]; iv, 3 mg/kg): 0.6 h
- Vd ([1]; iv, 3 mg/kg): 4.9 L/kg
- AUC(0-inf) ([1]; po, 30 mg/kg): 121 ng·h/mL
- AUC(0-t) ([1]; po, 30 mg/kg): 107 ng·h/mL
- Cmax ([1]; po, 30 mg/kg): 41 ng/mL
- Tmax ([1]; po, 30 mg/kg): 1 h
- half-life ([1]; po, 30 mg/kg): 1.9 h

Compound: Fc1cncc(-c2nc(N[C@@H]3CCc4[nH]c5ccccc5c4C3)c3ncccc3n2)c1 [I-126, (3R)—N-[2-(5-Fluoro-3-pyridyl)pyrido[3,2-d]pyrimidin-4-yl]-2,3,4,9-tetrahydro-1H-carbazol-3-amine]
- bioavailability ([1]; po, 30 mg/kg): 100%
- AUC(0-inf) ([1]; iv, 3 mg/kg): 1650 ng·h/mL
- AUC(0-t) ([1]; iv, 3 mg/kg): 1460 ng·h/mL
- clearance ([1]; iv, 3 mg/kg): 30 mL/min/kg
- half-life ([1]; iv, 3 mg/kg): 8.8 h
- Vd ([1]; iv, 3 mg/kg): 17 L/kg
- AUC(0-inf) ([1]; po, 30 mg/kg): 14700 ng·h/mL
- AUC(0-t) ([1]; po, 30 mg/kg): 13700 ng·h/mL
- Cmax ([1]; po, 30 mg/kg): 1870 ng/mL
- Tmax ([1]; po, 30 mg/kg): 1 h
- half-life ([1]; po, 30 mg/kg): 6.1 h
- IC50 (AHR): < 500 nM

Compound: CN(C)c1cnn2c(N[C@@H]3CCc4[nH]c5ccccc5c4C3)nc(-c3cncc(F)c3)nc12 [I-129, 2-(5-Fluoro-3-pyridyl)-N8,N8-dimethyl-N4-[(3R)-2,3,4,9-tetrahydro-1H-carbazol-3-yl]pyrazolo[1,5-a][1,3,5]triazine-4,8-diamine]
- bioavailability ([1]; po, 30 mg/kg): 53%
- AUC(0-inf) ([1]; iv, 3 mg/kg): 1620 ng·h/mL
- AUC(0-t) ([1]; iv, 3 mg/kg): 1340 ng·h/mL
- clearance ([1]; iv, 3 mg/kg): 31 mL/min/kg
- half-life ([1]; iv, 3 mg/kg): 14 h
- Vd ([1]; iv, 3 mg/kg): 22 L/kg
- AUC(0-inf) ([1]; po, 30 mg/kg): 7530 ng·h/mL
- AUC(0-t) ([1]; po, 30 mg/kg): 7030 ng·h/mL
- Cmax ([1]; po, 30 mg/kg): 1040 ng/mL
- Tmax ([1]; po, 30 mg/kg): 2 h
- half-life ([1]; po, 30 mg/kg): 6.4 h
- IC50 (AHR): < 500 nM

Compound: N#Cc1cnn2c(N[C@@H]3CCc4[nH]c5ccccc5c4C3)nc(-c3cncc(F)c3)nc12 [I-130, 2-(5-Fluoro-3-pyridyl)-4-[[(3R)-2,3,4,9-tetrahydro-1H-carbazol-3-yl]amino]pyrazolo[1,5-a][1,3,5]triazine-8-carbonitrile]
- bioavailability ([1]; po, 30 mg/kg): 53%
- AUC(0-inf) ([1]; iv, 3 mg/kg): 1270 ng·h/mL
- AUC(0-t) ([1]; iv, 3 mg/kg): 1220 ng·h/mL
- clearance ([1]; iv, 3 mg/kg): 39 mL/min/kg
- half-life ([1]; iv, 3 mg/kg): 2.6 h
- Vd ([1]; iv, 3 mg/kg): 7.5 L/kg
- AUC(0-inf) ([1]; po, 30 mg/kg): 6690 ng·h/mL
- AUC(0-t) ([1]; po, 30 mg/kg): 6620 ng·h/mL
- Cmax ([1]; po, 30 mg/kg): 936 ng/mL
- Tmax ([1]; po, 30 mg/kg): 2 h
- half-life ([1]; po, 30 mg/kg): 3.5 h
- IC50 (AHR): < 500 nM

Compound: CC(C)c1cnn2c(N[C@@H]3CCc4[nH]c5ccccc5c4C3)nc(C3CCOCC3)nc12 [I-258, (3R)—N-(8-Isopropyl-2-tetrahydropyran-4-yl-pyrazolo[1,5-a][1,3,5]triazin-4-yl)-2,3,4,9-tetrahydro-1H-carbazol-3-amine]
- IC50 (AHR): > 1500 nM

Compound: Cc1cnn2c(N[C@@H]3CCc4[nH]ccc4C3)nc(-c3cncc(F)c3)nc12 [I-259b, 2-(5-Fluoro-3-pyridyl)-8-methyl-N-[(5R)-4,5,6,7-tetrahydro-1H-indol-5-yl]pyrazolo[1,5-a][1,3,5]triazin-4-amine]
- IC50 (AHR): < 500 nM

Compound: CC(C)c1cnn2c(NC3CCc4[nH]c5ccccc5c4C3)nc(N3CCN(C)CC3)nc12 (stereo not shown) [I-260]
- IC50 (AHR): > 1500 nM

Compound: CC(C)c1cnn2c(NC3CCc4[nH]c5ccccc5c4C3)nc(-c3cccc(OC(F)(F)F)c3)nc12 (stereo not shown) [I-261]
- IC50 (AHR): > 1500 nM

Compound: O=C(c1cnn2c(N[C@@H]3CCc4[nH]c5ccccc5c4C3)nc(-c3cncc(F)c3)nc12)N1CCOCC1 [I-262, [2-(5-Fluoro-3-pyridyl)-4-[[(3R)-2,3,4,9-tetrahydro-1H-carbazol-3-yl]amino]pyrazolo[1,5-a][1,3,5]triazin-8-yl]-morpholino-methanone]
- IC50 (AHR): < 500 nM

Compound: CC(C)c1cnn2c(N[C@H]3Cc4[nH]c5ccccc5c4C3)nc(-c3cncc(F)c3)nc12 [I-263b, (2R)—N-[2-(5-fluoro-3-pyridyl)-8-isopropyl-pyrazolo[1,5-a][1,3,5]triazin-4-yl]-1,2,3,4-tetrahydrocyclopenta[b]indol-2-amine]
- IC50 (AHR): 1000 to 1500 nM

Compound: CC(C)c1cnn2c(N[C@@H]3CCc4[nH]c5ccccc5c4C3)nc(N3CCCCC3)nc12 [I-264, (3R)—N-[8-Isopropyl-2-(1-piperidyl)pyrazolo[1,5-a][1,3,5]triazin-4-yl]-2,3,4,9-tetrahydro-1H-carbazol-3-amine]
- IC50 (AHR): > 1500 nM

Compound: NC(=O)c1cnn2c(N[C@@H]3CCc4[nH]c5ccccc5c4C3)nc(-c3cncc(F)c3)nc12 [I-265, 2-(5-Fluoro-3-pyridyl)-4-[[(3R)-2,3,4,9-tetrahydro-1H-carbazol-3-yl]amino]pyrazolo[1,5-a][1,3,5]triazine-8-carboxamide]
- IC50 (AHR): < 500 nM

Compound: CC(C)c1cnn2c(NCCc3c[nH]c(N)n3)nc(-c3cncc(F)c3)nc12 [I-266]
- IC50 (AHR): > 1500 nM

Compound: Fc1cncc(-c2nc(N[C@@H]3CCc4[nH]c5ccccc5c4C3)n3ncc(C(F)(F)F)c3n2)c1 [I-267, (3R)—N-[2-(5-Fluoro-3-pyridyl)-8-(trifluoromethyl)pyrazolo[1,5-a][1,3,5]triazin-4-yl]-2,3,4,9-tetrahydro-1H-carbazol-3-amine]
- IC50 (AHR): < 500 nM

Compound: CC(C)c1cnn2c(NC3CCc4[nH]c5ccccc5c4C3)nc(C3CCCCC3)nc12 (stereo not shown) [I-268]
- IC50 (AHR): > 1500 nM

Compound: CC(C)c1cnn2c(NC3CCc4[nH]c5ccccc5c4C3)nc(-c3ccc(OC(F)(F)F)cc3)nc12 (stereo not shown) [I-269]
- IC50 (AHR): > 1500 nM

Second part, the compound after the results:

- IC50 (AHR): < 500 nM
Compound: CC(C)c1cnn2c(N[C@@H]3CCc4[nH]c5ccccc5c4C3)nc(-c3cncnc3)nc12 [I-270, (3R)—N-(8-Isopropyl-2-pyrimidin-5-yl-pyrazolo[1,5-a][1,3,5]triazin-4-yl)-2,3,4,9-tetrahydro-1H-carbazol-3-amine]

- IC50 (AHR): > 1500 nM
Compound: CC(C)c1cnn2c(NC3CCc4[nH]c5ccccc5c4C3)nc(-c3ccc4c(c3)OC(F)(F)O4)nc12 (stereo not shown) [I-271]

- IC50 (AHR): > 1500 nM
Compound: CC(C)c1cnn2c(NC3CCc4[nH]c5ccccc5c4C3)nc(-c3ccc(=O)n(C)c3)nc12 (stereo not shown) [I-272]

- IC50 (AHR): 1000 to 1500 nM
Compound: Fc1cncc(-c2nc(NC3CCc4[nH]c5ccccc5c4C3)n3ncc(-c4ncc[nH]4)c3n2)c1 (stereo not shown) [I-273]

- IC50 (AHR): < 500 nM
Compound: Fc1cncc(-c2nc(NC3CCc4[nH]c5ccccc5c4C3)n3ncc(-c4cnc[nH]4)c3n2)c1 (stereo not shown) [I-274]

- IC50 (AHR): < 500 nM
Compound: O=Cc1cnn2c(NC3CCc4[nH]c5ccccc5c4C3)nc(-c3cncc(F)c3)nc12 (stereo not shown) [I-275]

- IC50 (AHR): < 500 nM
Compound: Fc1cncc(-c2nc(NC3CCc4[nH]c5ccccc5c4C3)n3ncc(CNC4CC4)c3n2)c1 (stereo not shown) [I-276]

- IC50 (AHR): < 500 nM
Compound: CNCc1cnn2c(NC3CCc4[nH]c5ccccc5c4C3)nc(-c3cncc(F)c3)nc12 (stereo not shown) [I-277]

- IC50 (AHR): < 500 nM
Compound: OCc1cnn2c(NC3CCc4[nH]c5ccccc5c4C3)nc(-c3cncc(F)c3)nc12 (stereo not shown) [I-278]

- IC50 (AHR): > 1500 nM
Compound: CC(C)c1cnn2c(NC3CCc4[nH]c5ccccc5c4C3)nc(-c3cncc(C(F)(F)F)c3)nc12 (stereo not shown) [I-279]

- IC50 (AHR): > 1500 nM
Compound: CC(C)c1cnn2c(NC3CCc4[nH]c5ccccc5c4C3)nc(-c3ccc(C(F)(F)F)nc3)nc12 (stereo not shown) [I-280]

- IC50 (AHR): < 500 nM
Compound: CC(C)c1cnn2c(NC3CCc4[nH]c5ccccc5c4C3)nc(-n3ccnc3)nc12 (stereo not shown) [I-281]

- IC50 (AHR): < 500 nM
Compound: C#Cc1cnn2c(NC3CCc4[nH]c5ccccc5c4C3)nc(-c3cncc(F)c3)nc12 (stereo not shown) [I-282]

- IC50 (AHR): > 1500 nM
Compound: CNC(=O)c1cnn2c(NC3CCc4[nH]c5ccccc5c4C3)nc(-c3cncc(F)c3)nc12 (stereo not shown) [I-283]

- IC50 (AHR): 500 to 1000 nM
Compound: CC(C)c1cnn2c(NC3CCc4[nH]c5ccccc5c4C3)nc(-c3ccnnc3)nc12 (stereo not shown) [I-284]

- IC50 (AHR): > 1500 nM
Compound: O=C(NC1CC1)c1cnn2c(NC3CCc4[nH]c5ccccc5c4C3)nc(-c3cncc(F)c3)nc12 (stereo not shown) [I-285]

- IC50 (AHR): < 500 nM
Compound: CON(C)C(=O)c1cnn2c(NC3CCc4[nH]c5ccccc5c4C3)nc(-c3cncc(F)c3)nc12 (stereo not shown) [I-286]

- IC50 (AHR): > 1500 nM
Compound: O=C(O)c1cnn2c(NC3CCc4[nH]c5ccccc5c4C3)nc(-c3cncc(F)c3)nc12 (stereo not shown) [I-287]

- IC50 (AHR): < 500 nM
Compound: CN(C)C(=O)c1cnn2c(NC3CCc4[nH]c5ccccc5c4C3)nc(-c3cncc(F)c3)nc12 (stereo not shown) [I-288]

- IC50 (AHR): < 500 nM
Compound: CC(C)c1cnn2c(NCCc3n[nH]c4ccccc34)nc(-c3cncc(F)c3)nc12 [I-289]
